Values quoted from earlier work in PMC2831206 (Journal of medicinal chemistry, 2010).

How the values were obtained:
PDE9A = details: read-out: IC50 with PDE9A
learning and memory = details: rodents

| IC50 (PDE9A) [µM] | SMILES | effect on learning and memory (learning and memory) |
| --- | --- | --- |
| > 200 | CC(C)Cn1c(=O)n(C)c(=O)c2nc[nH]c21 [IBMX, 3-isobutyl-1-methylxanthine] | – |
| – | C[C@H](Cc1nc2c(cnn2-c2ccccc2Cl)c(=O)[nH]1)C(F)(F)F [compound 1, 1-(2-chlorophenyl)-6-(3,3,3-trifluoro-2-methylpropyl)-1H-pyrazolo[3,4-d]pyrimidine-4(5H)-one] | ability to improve learning and memory in rodents |
